Earlier results, collected in patent US20050058722A1, “Herbo-mineral formulation for refractory leukemias and lymphomas” (Sahajanand Biotech Private Limited, priority 2003, published 2005).

Key:
[1] = system: myeloid leukemia cell lines; conditions: pre-clinical studies
lymphoid neoplasms = conditions: pre-clinical studies

Question: Which Apoptosis and differentiation [1] does the source give for Arsenic trioxide here?
Answer: dose-dependent induction of apoptosis and partial differentiation

Question: And the “Apoptosis and cell cycle” value (lymphoid neoplasms)?
Answer: induction of apoptosis and cell cycle arrest
